# Entries after “also recorded” stand apart in the source; their conditions may differ. Read-outs that look alike come from different tables or passages of the source.
# Assays:
# Rock1 = Rock1 (Homo sapiens, UniProt Q13464); assay: Kinase panel, Rock1; type: biochemical
# [1] = tested on: EPO dependent reticulocyte deployment; assay: Reticulocyte deployment assay (i.v. EPO) in rats; type: in vivo; details: over the exposure range efficacious in rat AIA
# Text: Reticulocytes were deployed with an i.v. EPO injection, which produced a modest but very precise reticulocytosis.
# In contrast, PBS control has negligible (if any) effect. This is consistent with the fact that EPO signals through Jak2 to stimulate reticulocyte development.
# [2] = Metabolic stability in hepatocytes, rat; type: in vitro ADME; details: read-out: intrinsic clearance in hepatocytes (converted)
# [3] = In vitro metabolism of [14C]Compound 1 in liver cytosol and hepatocytes; type: in vitro ADME, rat, dog, monkey, and human
# Text: (§1) In vitro biotransformation of Compound 1 primarily occurred at imidazolpyrrolopyrazinyl ethyl pyrrolidine moiety.
# [4] = Safety pharmacology in dogs (mean arterial pressure, heart rate); details: dog, in vivo; read-out: Cmax at which effects on mean arterial pressure and heart rate begin
# Protocol: Compound 1 was tested in a battery of safety pharmacology assays.
# [5] = molecular target: CYP3A4 (midazolam/testosterone) (Homo sapiens, UniProt P08684); assay: CYP inhibition in human liver microsomes, CYP3A4
# CYP3A5 = CYP3A5 (Homo sapiens, UniProt P20815); assay: Metabolism by recombinant CYP3A5; type: in vitro ADME
# Text: as §1
# BCRP = molecular target: T1, BCRP (Homo sapiens, UniProt Q9UNQ0); assay: BCRP inhibition; type: in vitro ADME
# T1 construct: expressed in transfected cells; host or cells: MDCKII-BCRP
# [6] = Clinical safety, Study M13-401
# OATP1B3 = OATP1B3 (Homo sapiens, UniProt Q9NPD5); assay: Transporter inhibition, OATP1B3; details: up to 30 μM
# [7] = Plasma protein binding, monkey; type: in vitro ADME
# [8] = Definitive embryofetal development toxicity study in rats; type: in vivo; details: rat
# Text: One additional group of 25 time-mated females served as the control and received the vehicle, 0.2% hydroxypropyl methylcellulose (HPMC, high viscosity) in deionized water.
# [9] = Human PK, multiple ascending dose Study M13-845 Substudy 1; type: in vivo; details: for AUC: human, in vivo, oral
# OAT1 = OAT1 (Homo sapiens, UniProt Q4U2R8); assay: Transporter inhibition, OAT1; details: up to 30 μM
# CYP3A4 = CYP3A4 (Homo sapiens, UniProt P08684); assay: Metabolism by recombinant CYP3A4; type: in vitro ADME
# Text: as §1
# OAT3 = OAT3 (Homo sapiens, UniProt Q8TCC7); assay: Transporter inhibition, OAT3
# IFN-γ = assay: Concanavalin A-induced IFN-γ in Lewis rats; type: in vivo; details: oral, 30 min prior to i.v. Con A
# Protocol: The test compound is formulated in an inert vehicle (for example but not limited to 0.5% hydroxypropylmethyl cellulose (Sigma, cat #H3785)/0.02% Tween 80 (Sigma, cat #4780) in water) at the desired concentration to achieve doses in the range of 0.01-100 mg/kg. Six-week-old male Lewis rats (125 g-150 g) (Charles River Laboratories) are dosed with the compound orally, at time zero (0 min). After about 30 min the rats are injected intravenously (i.v.) with 10 mg/kg Concanavalin A (Con A, AmershamBioscience, cat #17-0450-01) dissolved in PBS (Invitrogen, cat #14190). About 4 h later, the rats are cardiac bled and their plasma is analyzed for levels of IL-2 (ELISA kit: R&D Systems cat #R2000) and IFN-γ (ELISA kit: R&D Systems cat #RIF00).
# The rat concanavalin A (Con A) model was selected as the acute screening model because it provides an assessment of oral bioavailability, as well as a rapid measurement of effects on Jak1-dependent mechanisms. Intravenous injection of Con A into Lewis rats results in T cell receptor ligation and activation, leading to IL-2 release and IFN-γ induction by an autocrine mechanism. IL-2 release is Jak-independent, whereas IFN-γ induction is blocked by Jak1 inhibitors.
# Plasma levels of IFN-γ and IL-2 are assessed 4 hours later in a terminal bleed.
# Rock2 = Rock2 (Homo sapiens, UniProt O75116); assay: Kinase panel, Rock2; type: biochemical
# [10] = 12 mg BID, Day 14, mean (% CV), Western subjects, listed as Comp. 1
# [11] = 24 mg BID, Day 14, mean (% CV), Western subjects, listed as Comp. 1
# CYP3A4 (midazolam/testosterone), sequence (P08684 whole entry): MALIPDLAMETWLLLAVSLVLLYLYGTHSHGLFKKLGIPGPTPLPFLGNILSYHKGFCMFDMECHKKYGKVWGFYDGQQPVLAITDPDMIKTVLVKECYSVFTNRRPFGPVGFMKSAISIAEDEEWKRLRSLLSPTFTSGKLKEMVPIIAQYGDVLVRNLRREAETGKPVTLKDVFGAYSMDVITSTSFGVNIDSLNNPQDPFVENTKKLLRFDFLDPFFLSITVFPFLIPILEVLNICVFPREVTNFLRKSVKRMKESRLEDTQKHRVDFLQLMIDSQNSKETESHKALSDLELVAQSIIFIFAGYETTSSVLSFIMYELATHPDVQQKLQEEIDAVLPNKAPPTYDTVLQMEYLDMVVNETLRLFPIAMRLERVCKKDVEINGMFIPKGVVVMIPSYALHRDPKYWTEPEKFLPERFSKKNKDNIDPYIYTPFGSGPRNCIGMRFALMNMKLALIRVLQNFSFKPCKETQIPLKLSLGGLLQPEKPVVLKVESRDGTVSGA
# Rock2, sequence (O75116 whole entry, species assumed): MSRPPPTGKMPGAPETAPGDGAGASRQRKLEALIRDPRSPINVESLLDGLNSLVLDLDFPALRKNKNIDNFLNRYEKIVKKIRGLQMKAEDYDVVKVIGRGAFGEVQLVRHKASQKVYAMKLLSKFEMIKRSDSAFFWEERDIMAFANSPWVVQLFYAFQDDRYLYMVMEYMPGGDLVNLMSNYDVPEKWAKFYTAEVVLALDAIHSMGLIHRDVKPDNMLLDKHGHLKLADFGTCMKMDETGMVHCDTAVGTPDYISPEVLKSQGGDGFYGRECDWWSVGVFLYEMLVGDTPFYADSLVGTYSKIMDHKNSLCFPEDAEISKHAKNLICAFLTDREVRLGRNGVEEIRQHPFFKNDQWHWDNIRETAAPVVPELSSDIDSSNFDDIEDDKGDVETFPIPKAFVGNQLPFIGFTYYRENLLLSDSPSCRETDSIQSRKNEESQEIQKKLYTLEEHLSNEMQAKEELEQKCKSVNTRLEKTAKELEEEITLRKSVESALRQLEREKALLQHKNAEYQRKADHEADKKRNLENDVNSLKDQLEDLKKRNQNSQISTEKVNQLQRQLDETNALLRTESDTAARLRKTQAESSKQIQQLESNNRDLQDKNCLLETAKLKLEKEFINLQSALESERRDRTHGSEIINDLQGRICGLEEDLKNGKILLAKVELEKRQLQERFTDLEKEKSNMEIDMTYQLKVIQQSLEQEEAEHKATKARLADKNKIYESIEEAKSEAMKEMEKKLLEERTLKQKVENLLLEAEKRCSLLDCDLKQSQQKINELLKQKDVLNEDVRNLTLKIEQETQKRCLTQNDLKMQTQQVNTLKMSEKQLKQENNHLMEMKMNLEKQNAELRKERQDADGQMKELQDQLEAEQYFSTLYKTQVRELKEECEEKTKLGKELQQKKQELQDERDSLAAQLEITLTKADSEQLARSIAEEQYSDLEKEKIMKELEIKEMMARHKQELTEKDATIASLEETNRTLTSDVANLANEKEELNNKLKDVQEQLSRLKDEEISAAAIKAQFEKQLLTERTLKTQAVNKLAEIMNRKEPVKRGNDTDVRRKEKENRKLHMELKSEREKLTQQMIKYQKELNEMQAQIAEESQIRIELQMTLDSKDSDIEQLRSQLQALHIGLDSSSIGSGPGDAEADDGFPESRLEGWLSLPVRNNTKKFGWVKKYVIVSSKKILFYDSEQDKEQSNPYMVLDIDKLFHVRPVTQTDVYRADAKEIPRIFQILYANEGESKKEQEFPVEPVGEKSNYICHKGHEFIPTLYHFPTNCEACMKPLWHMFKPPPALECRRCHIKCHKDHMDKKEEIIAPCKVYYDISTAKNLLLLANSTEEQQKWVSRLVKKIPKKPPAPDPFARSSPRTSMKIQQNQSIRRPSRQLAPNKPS
# Rock1, sequence (Q13464 whole entry, species assumed): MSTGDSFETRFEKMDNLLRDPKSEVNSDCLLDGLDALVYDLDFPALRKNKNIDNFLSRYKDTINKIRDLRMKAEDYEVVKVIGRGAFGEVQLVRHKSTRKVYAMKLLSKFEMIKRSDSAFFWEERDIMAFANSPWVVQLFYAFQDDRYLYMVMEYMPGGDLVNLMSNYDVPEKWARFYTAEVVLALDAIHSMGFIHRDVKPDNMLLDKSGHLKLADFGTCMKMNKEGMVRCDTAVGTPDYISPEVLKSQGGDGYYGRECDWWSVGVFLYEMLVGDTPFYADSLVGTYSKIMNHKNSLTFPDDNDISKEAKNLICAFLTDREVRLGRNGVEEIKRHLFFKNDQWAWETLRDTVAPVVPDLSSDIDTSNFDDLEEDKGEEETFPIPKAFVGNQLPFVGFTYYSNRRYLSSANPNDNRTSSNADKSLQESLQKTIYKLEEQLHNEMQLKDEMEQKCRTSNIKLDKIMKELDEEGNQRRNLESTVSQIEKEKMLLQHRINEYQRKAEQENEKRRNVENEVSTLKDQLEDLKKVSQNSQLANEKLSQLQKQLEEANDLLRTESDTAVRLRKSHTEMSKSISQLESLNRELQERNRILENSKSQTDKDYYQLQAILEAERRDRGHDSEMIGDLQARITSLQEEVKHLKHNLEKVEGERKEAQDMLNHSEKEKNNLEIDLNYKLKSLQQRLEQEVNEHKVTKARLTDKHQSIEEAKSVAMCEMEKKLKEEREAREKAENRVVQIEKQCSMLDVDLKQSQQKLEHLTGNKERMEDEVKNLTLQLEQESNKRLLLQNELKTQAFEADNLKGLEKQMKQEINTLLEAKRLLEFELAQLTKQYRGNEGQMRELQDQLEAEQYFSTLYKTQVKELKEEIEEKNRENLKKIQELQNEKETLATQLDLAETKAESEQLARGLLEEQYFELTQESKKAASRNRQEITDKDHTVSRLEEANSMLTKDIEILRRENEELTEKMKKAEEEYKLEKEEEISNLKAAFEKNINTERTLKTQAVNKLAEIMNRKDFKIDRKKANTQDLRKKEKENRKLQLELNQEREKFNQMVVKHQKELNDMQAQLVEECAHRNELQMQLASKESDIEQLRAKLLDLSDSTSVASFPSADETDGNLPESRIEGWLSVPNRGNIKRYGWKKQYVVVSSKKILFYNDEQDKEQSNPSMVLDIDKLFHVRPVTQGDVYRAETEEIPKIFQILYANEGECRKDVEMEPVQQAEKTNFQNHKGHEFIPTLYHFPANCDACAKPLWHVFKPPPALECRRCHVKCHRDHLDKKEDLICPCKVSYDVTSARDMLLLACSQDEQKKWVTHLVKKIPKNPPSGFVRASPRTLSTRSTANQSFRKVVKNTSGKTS
# CYP3A4, sequence (P08684 whole entry): as the sequence (P08684 whole entry) above
# OAT1, sequence (Q4U2R8 whole entry): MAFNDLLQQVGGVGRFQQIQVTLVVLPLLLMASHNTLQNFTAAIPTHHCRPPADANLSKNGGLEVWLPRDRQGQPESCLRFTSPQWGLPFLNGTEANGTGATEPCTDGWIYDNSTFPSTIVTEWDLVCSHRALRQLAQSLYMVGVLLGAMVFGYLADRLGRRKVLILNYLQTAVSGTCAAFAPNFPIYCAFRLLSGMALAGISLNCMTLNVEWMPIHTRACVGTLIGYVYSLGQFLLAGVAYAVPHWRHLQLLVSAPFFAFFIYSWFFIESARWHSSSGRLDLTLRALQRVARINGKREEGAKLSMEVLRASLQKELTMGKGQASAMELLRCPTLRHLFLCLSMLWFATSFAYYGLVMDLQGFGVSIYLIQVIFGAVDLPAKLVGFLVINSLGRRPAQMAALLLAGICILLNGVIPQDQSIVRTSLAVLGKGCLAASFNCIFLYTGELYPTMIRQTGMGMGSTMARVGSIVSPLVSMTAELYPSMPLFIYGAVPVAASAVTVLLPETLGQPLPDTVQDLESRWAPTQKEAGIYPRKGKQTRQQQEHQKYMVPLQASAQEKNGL
# OATP1B3, sequence (Q9NPD5 whole entry): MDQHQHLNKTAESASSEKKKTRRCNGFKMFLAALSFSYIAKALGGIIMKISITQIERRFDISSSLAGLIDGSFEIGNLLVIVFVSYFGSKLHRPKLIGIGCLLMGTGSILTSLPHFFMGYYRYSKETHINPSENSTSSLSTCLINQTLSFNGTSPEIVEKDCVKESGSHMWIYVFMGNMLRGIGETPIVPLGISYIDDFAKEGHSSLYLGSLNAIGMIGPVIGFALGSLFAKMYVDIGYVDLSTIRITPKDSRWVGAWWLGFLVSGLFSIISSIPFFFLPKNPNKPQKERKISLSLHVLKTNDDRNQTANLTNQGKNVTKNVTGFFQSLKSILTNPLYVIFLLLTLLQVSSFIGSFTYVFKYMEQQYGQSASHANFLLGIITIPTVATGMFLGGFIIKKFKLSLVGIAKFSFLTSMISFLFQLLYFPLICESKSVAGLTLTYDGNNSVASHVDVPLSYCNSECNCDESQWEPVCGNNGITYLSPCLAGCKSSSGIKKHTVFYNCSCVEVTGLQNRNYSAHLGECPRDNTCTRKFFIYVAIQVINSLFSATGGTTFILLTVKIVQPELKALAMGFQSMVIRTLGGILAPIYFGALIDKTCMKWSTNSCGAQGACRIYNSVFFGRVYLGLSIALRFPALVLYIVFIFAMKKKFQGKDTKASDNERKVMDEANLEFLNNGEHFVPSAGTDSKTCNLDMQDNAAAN
# OAT3, sequence (Q8TCC7 whole entry): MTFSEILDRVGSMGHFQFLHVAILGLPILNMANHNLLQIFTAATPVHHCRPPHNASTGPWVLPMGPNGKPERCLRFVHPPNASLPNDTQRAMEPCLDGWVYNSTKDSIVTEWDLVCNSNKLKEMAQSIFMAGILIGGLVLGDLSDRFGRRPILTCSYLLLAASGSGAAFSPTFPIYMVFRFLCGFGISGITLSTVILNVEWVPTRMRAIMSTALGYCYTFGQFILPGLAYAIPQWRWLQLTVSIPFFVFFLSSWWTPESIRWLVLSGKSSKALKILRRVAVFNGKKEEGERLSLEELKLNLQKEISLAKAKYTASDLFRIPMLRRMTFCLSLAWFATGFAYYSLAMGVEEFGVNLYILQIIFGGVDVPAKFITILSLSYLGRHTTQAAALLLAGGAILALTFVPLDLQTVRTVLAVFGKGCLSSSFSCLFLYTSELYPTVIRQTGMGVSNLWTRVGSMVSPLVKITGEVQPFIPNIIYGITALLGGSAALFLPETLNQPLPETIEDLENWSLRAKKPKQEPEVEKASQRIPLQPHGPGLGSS
structure (smiles),measurement,setting,value
"CC[C@@H]1CN(C(=O)NCC(F)(F)F)C[C@@H]1c1cnc2cnc3[nH]ccc3n12 [Compound 1, (3S,4R)-3-ethyl-4-(3H-imidazo[1,2-a]pyrrolo[2,3-e]pyrazin-8-yl)-N-(2,2,2-trifluoroethyl)pyrrolidine-1-carboxamide]",IC50,Rock1,0.55 µM
same,effects on reticulocyte deployment,[1],less than that of Tofacitinib
same,CLint scaled at 1 μM,[2],67.8 mL/min/kg
same,metabolism in liver cytosol incubations,[3]; liver cytosol,No metabolism
same,turnover in hepatocytes,"[3]; rat, dog, monkey, human hepatocytes",< 10%
same,Cmax,[4],420 ng/mL
same,time-dependent inhibition of CYP3A4,[5]; human liver microsomes,No obvious time-dependent inhibition
same,inhibition of CYP3A4 (midazolam/testosterone),[5]; up to 30 μM,did not inhibit; also recorded: not an inhibitor
same,percentage of parent remaining,CYP3A5,80.6%
same,IC50,BCRP,126 µM
same,effects on blood pressure and heart rate,"[6]; FIH study, through highest single dose of 48 mg",no effects
same,subjects meeting predefined criteria for potentially clinically significant QT or QTcF interval,[6]; Study M13-401,No subjects
same,"adverse events severe, serious, or fatal",[6]; Study M13-401 Substudy 1 and 2,None
same,dose-limiting toxicities,"[6]; healthy volunteers, single doses 1 to 48 mg and 3, 6, 12, 24 mg twice daily 14 days",no dose-limiting toxicities
same,inhibition of OATP1B3 uptake,OATP1B3,No significant inhibition
same,fraction unbound,[7],0.61
same,"maternal clinical observations, body weights, food consumption, macroscopic examinations",[8]; GD 6 to 17,No Compound 1-related effects
same,NOEL,"[8]; oral, GD 6-17",NOEL < 5 mg/kg/day
same,AUC12/dose,"[9]; 3 mg BID, Day 1",25.1 ng·h/mL/mg
same,C12/dose,"[9]; 3 mg BID, Day 1",0.32 ng/mL/mg
same,Cmax/dose,"[9]; 3 mg BID, Day 1",6.33 ng/mL/mg
same,AUC12/dose,"[9]; 3 mg BID, Day 14",26.1 ng·h/mL/mg
same,Cmax/dose,"[9]; 3 mg BID, Day 14",6.16 ng/mL/mg
same,"Fe %, unchanged drug recovered in urine","[9]; 3 mg BID, Day 14",18.8%
same,AUC12/dose,"[9]; 6 mg BID, Day 1",22.3 ng·h/mL/mg
same,C12/dose,"[9]; 6 mg BID, Day 1",0.30 ng/mL/mg
same,Cmax/dose,"[9]; 6 mg BID, Day 1",4.91 ng/mL/mg
same,AUC12/dose,"[9]; 6 mg BID, Day 14",23.1 ng·h/mL/mg
same,Cmax/dose,"[9]; 6 mg BID, Day 14",4.80 ng/mL/mg
same,"Fe %, unchanged drug recovered in urine","[9]; 6 mg BID, Day 14",18.7%
same,AUC12/dose,"[9]; 12 mg BID, Day 1",22.5 ng·h/mL/mg
same,C12/dose,"[9]; 12 mg BID, Day 1",0.33 ng/mL/mg
same,Cmax/dose,"[9]; 12 mg BID, Day 1",4.84 ng/mL/mg
same,"Fe %, unchanged drug recovered in urine","[9]; 12 mg BID, Day 14",21.4%
same,AUC12/dose,[9]; [10],22.6 ng·h/mL/mg
same,Cmax/dose,[9]; [10],4.80 ng/mL/mg
same,AUC12/dose,"[9]; 24 mg BID, Day 1",22.5 ng·h/mL/mg
same,C12/dose,"[9]; 24 mg BID, Day 1",0.32 ng/mL/mg
same,Cmax/dose,"[9]; 24 mg BID, Day 1",5.25 ng/mL/mg
same,"Fe %, unchanged drug recovered in urine","[9]; 24 mg BID, Day 14",18.7%
same,AUC12/dose,[9]; [11],22.0 ng·h/mL/mg
same,Cmax/dose,[9]; [11],4.95 ng/mL/mg
same,AUC,"[9]; 3 mg, 3 mg BID, Day 1, mean, read-out: AUC12",75.3 ng·h/mL
same,AUC,"[9]; 3 mg, 3 mg BID, Day 14, mean, read-out: AUC12",78.3 ng·h/mL
same,AUC,"[9]; 6 mg, 6 mg BID, Day 14, mean, read-out: AUC12",138 ng·h/mL
same,AUC,"[9]; 6 mg, AUC12, 6 mg BID, Day 1, mean, heading: AUC12",134 ng·h/mL
same,AUC,"[9]; 12 mg, 12 mg BID, Day 1, mean, read-out: AUC12",270 ng·h/mL
same,AUC,"[9]; 12 mg, 12 mg BID, Day 14, mean, read-out: AUC12",271 ng·h/mL
same,AUC,"[9]; 24 mg, 24 mg BID, Day 1, mean, read-out: AUC12",540 ng·h/mL
same,AUC,"[9]; 24 mg, 24 mg BID, Day 14, mean, read-out: AUC12",529 ng·h/mL
same,inhibition of OAT1 uptake,OAT1,No significant inhibition
same,percentage of parent remaining,CYP3A4,36.0%
same,IC50,OAT3,43 µM
same,ED50,"IFN-γ; Rattus norvegicus, read-out: ED50, inhibition of IFN-γ release",0.4 mg/kg
same,"ED80, inhibition of IFN-γ release",IFN-γ,5.8 mg/kg
same,IC50,Rock2,0.43 µM

# Reference: patent publication US20150118229A1, “JAK1 SELECTIVE INHIBITOR AND USES THEREOF” (ABBVIE INC., priority 2013, published 2015)
